Test results from a melting point compilation (Tetko et al.; mined from patent text by program, amines drawn as free bases though some values may be those of a salt).

melting point	SMILES
164 to 165 °C	CCc1ccc(-c2ccc3c(c2)C=C(C(=O)Nc2ccc(CN(C)C4CCOCC4)cc2)CCN3C)cc1
205 to 207 °C	CN(C)C1CC2=CNC=C3C=C(C#N)OCC1=C32 (stereo not given)
95 to 97 °C	Cc1sc(N)c(C(=O)c2ccco2)c1C
82.5 to 83 °C	CC(Br)C(=O)c1cc([N+](=O)[O-])cs1 (stereo not given)
243 to 245 °C	O=c1[nH]cc(Oc2ccccc2)cc1-c1csc(-c2ccncc2)n1
> 300 °C	O=C(O)c1ccc(-c2c([N+](=O)[O-])oc3c2ccc2ccccc23)cc1
253 to 254 °C	CCCn1c(=O)c2[nH]c(/C=C/c3ccc(C)c(C)c3)nc2n(CCC)c1=O
234 to 236 °C	CC(=O)Nc1c(Cl)cc2c(=O)c(C(=O)O)cn3c2c1CCC3C (stereo not given)
288 to 289 °C	COc1ccc2cc(-c3ccc(C(=O)O)cc3)ccc2c1
194 to 196 °C	CCc1cc(Oc2ccc(S(C)(=O)=O)nc2)cc2cc(C3=NCC(CC(=O)N4CCS(=O)CC4)S3)[nH]c12 (stereo not given)
59 to 62 °C	CSc1c(C#N)cnn1-c1ccc(C(F)(F)F)cc1Cl
275 to 277 °C	Cc1nc2cc(NC(=O)c3ccc(Cl)cc3Cl)ccc2n1C
115 to 117 °C	COC(=O)c1ccc(OCCC2CCN(c3cc(Cl)nnc3Cl)CC2)cc1
200 to 201 °C	N#Cc1cccc2c1[nH]c1ccccc12
154 to 156 °C	Cc1cc(Oc2ccc(Cl)c(Cl)c2)ccc1S(C)(=O)=O
193 to 194 °C	CC(C)Oc1c(Br)csc1C(=O)Nc1nnn[nH]1
132 to 133 °C	O=C(NCCSc1ccncc1)c1ccccc1CO
99 to 100 °C	Cn1c(=O)c2ccccc2n(CCCCCl)c1=O
148 to 150 °C	O=S(=O)(NC1(CO)CCCC1)c1ccc2c(Cl)cnc(Cl)c2c1
40 °C	CCN1c2ncc(CO)cc2C(=O)N(C)c2ccc(F)nc21
146 to 147 °C	O=C1N[C@H](Cc2ccc(C(F)(F)F)cc2)[C@H](c2ccccc2F)O1 (racemic)
174 to 175 °C	COc1cc2oc(=O)c(CCN3CCN(c4ccccc4OC)CC3)c(C)c2cc1OC
69 to 76 °C	COC(=O)CCC(CNC(=O)C(C)(Cc1c[nH]c2ccccc12)NC(=O)OC1C2CC3CC(C2)CC1C3)c1ccccc1 (stereo not given)
194 to 196 °C	COc1cc(Nc2c(C#N)cnc3cc(OCc4cccs4)c(OC)cc23)c(Cl)cc1Cl

melting point	SMILES
195 to 197 °C	CONCc1nc2c(N)nc3cc(-c4cccnc4)cnc3c2n1CC(C)(C)O
89 to 91 °C	O=C=NCCC12CCCn3c1c(c1ccccc13)CCO2 (stereo not given)
198 to 201 °C	N#Cc1ccc(N=C=O)cc1Cl
50.5 to 51.5 °C	CCCS(=O)c1ncn(C(=O)N(CC)CC)n1 (stereo not given)
152 to 154 °C	COc1cc(C(=O)Nc2ccc(N3CCCC3)cc2C(C)=O)ccc1OCc1ccccc1
117 to 119 °C	CCOC(=O)c1cn2c3c(cccc3c1=O)CC2(C)C
102 °C	CN(C)Cc1ccc(CSCCNC(=O)NCCCN(C)CCN(Cc2ccc(F)cc2)c2ccccn2)o1
187 to 190 °C	CN1CCN(CC2COCc3nc4c(N)nc5ccccc5c4n32)CC1 (stereo not given)
89 to 92 °C	N[C@@H](CCCCNC(=O)NCc1ccccc1)C(=O)N1CC(F)(F)C(F)(F)C1
127 to 128 °C	O=C(NNc1ccc(Cl)cc1Cl)C(F)(F)F
172 to 175 °C	CN(C)Cc1coc(-c2cccc(C3=Nc4ccc(-n5cccc5)cc4NC(=O)C3)c2)n1
77 to 79 °C	CSCc1cc(=O)c2ccccc2o1
82 to 84 °C	CSCCCCCC=C(NC(=O)C1CC1(C)C)C(=O)O (stereo not given)
119 to 121 °C	CCOC(=O)C(C#N)=CC1C=C(OC)C(C(=O)OC)=C(OC)C1 (stereo not given)
152 °C	CNC(=O)N1CCc2cc(S(=O)(=O)N(C)OC)ccc21
75 °C	O=Cc1c2c(cn1Cc1ccccc1)OCCO2
105 °C	Cn1c(=O)c([N+](=O)[O-])c(N2CCN(C(=O)c3cccs3)CC2)c2ccccc21
252 to 255 °C	Cn1cc(S(C)=O)c(=O)c2sc(-c3ccccc3)cc21 (stereo not given)
208 to 210 °C	CCCC(=O)NC1=CC(=O)c2ccc(C=O)nc2C1=O
170 to 171 °C	COCCc1nc2c(N)nc3cc(OCc4ccccc4)ccc3c2n1CCCCNC(N)=O
205 to 206 °C	CCn1cc(C)c(=S)[nH]c1=O
154 to 155 °C	Cc1cc(-c2ncn(Cc3ccc(F)cc3)n2)sc1C(=O)NCc1cccnc1
70 °C	CCC1CC(=O)N(Cc2cccc(NC(C)=O)c2)N=C1c1ccc(OC)c(OC2CCCC2)c1 (stereo not given)
109 to 120 °C	CN(C)c1ccc2c(c1)OCCC2=O

melting point	SMILES
144 to 145 °C	CNC(=O)N1CC(Oc2ccc(Cl)cc2)C1
165 °C	CC(C)COc1c(C2CCN(CCCCNC(=O)c3ccc(-c4ccc(C(F)(F)F)cc4)cc3)CC2)ccc2c1CCCC2
197 to 198 °C	Cc1cccc(Sc2c(O)cc(-c3ccccc3)oc2=O)c1
101 to 102 °C	C#CCCOc1ccc(C=O)cc1OC
111 to 113 °C	Cc1cc(NC(=O)CN2CCN(c3ncccc3C#N)CC2)ccc1F
293 to 295 °C	COc1ccc2c(c1)c1c3c(c(-c4ccccc4Cl)cc1n2CCC(=O)NS(C)(=O)=O)C(=O)NC3=O
218 to 219 °C	O=C(Nc1nnc(SCC(=O)C23CC4CC(CC(C4)C2)C3)s1)C1CC1
73 to 76 °C	CC(C)(C)OC(=O)CN(O)CC(=O)OC(C)(C)C
124 to 127 °C	O=[N+]([O-])c1ccc(C(O)c2ccccn2)c(Cl)c1 (stereo not given)
85.5 to 86.5 °C	CC(=O)CCCCC(=O)Nc1ccccc1
35 to 50 °C	COC(=O)c1cnc(Cl)o1
106 to 108 °C	CCCCC(=O)N(Cc1ccc(-c2ccccc2-c2nnn[nH]2)cc1)C(C(=O)OCc1ccccc1)C(C)C (stereo not given)
143 to 145 °C	CC(=O)CC(=O)CC(=O)c1cc(S(=O)(=O)c2ccccc2)ccc1[N+](=O)[O-]
171 to 173 °C	COc1cc(C(=O)NCCC2Cc3c(C)c(OCc4ccccc4)c(C)c(C)c3O2)cc(OC)c1OC (racemic)
248 °C	CC1(C)CCCN(C(=O)CN(C(=O)CNC(=O)Nc2cccc(CO)c2)c2ccccc2)C1
160 to 161 °C	CCOC(=O)C1=CC2(CCC1S(=O)(=O)Nc1ccc(F)cc1Cl)SCCS2 (stereo not given)
169 to 170 °C	CN(C)Cc1ccc(OCC(=O)N2CCN(c3ccc(N4C[C@H](CNC(=S)C5CC5)OC4=O)cc3F)CC2)cc1
83 °C	Fc1cc(Cl)c(Br)c(Cl)c1
72 to 73 °C	COc1cc(C#N)c(N=C(C)N2CCc3cc(OC)c(OCc4ccccc4)cc3C2)cc1OC
139 to 142 °C	COc1ccc(Cl)cc1N1CCN(CCCNC(=O)c2c(-c3ccccc3)noc2C)CC1
86 to 92 °C	COCCNC(=O)c1cccc(-c2cccc3cc(Cc4cccc(C#N)c4)sc23)c1
200 to 201 °C	CCCn1nc2c(N)nc3ccccc3c2c1NC
136 to 140 °C	N#Cc1c(N2CCc3ccccc3CC2)nc2n(c1=O)CCCC2
196 °C	CN(C(=O)Nc1ccc2ccccc2c1)c1cccc(-c2ccc(CC3SC(=O)NC3=O)cc2)c1 (stereo not given)

melting point	SMILES
256 to 257 °C	O=c1oc2ccccc2c2oc(=S)c(-c3ccccc3)cc12
127 to 128 °C	CCc1cc(SCc2cccc3oc(-c4ccc(C(F)(F)F)cc4)nc23)ccc1OCC(=O)O
115 to 118 °C	CC(C)c1ccccc1N1/C(=N\N=C/c2ccc(-c3ncn(-c4ccc(OC(F)(F)F)cc4)n3)cc2)SCC1(O)c1ccccc1C(F)(F)F (stereo not given)
98 to 99 °C	CCCCCCCCCCCC1CC(O)C(CCCCCC)C(=O)O1 (stereo not given)
123 to 125 °C	COc1ccccc1CNC(=O)C1N(C(=O)C(O)C(Cc2ccccc2)NC(=O)c2cccc(O)c2C)CSC1(C)C (stereo not given)
102 °C	CSc1nc(Cl)cc(N(C)C)n1
50 to 51 °C	CCCCCC[C@H](CC(=O)OC(C)(C)C)C(=O)N1C(=O)OC[C@@H]1C(C)C
121 to 122 °C	CCCc1nn(-c2ccc(C(F)(F)F)cn2)cc1CCCCOc1ccc(CC(=O)O)cc1
130 to 132 °C	CCn1ncc2cc3c(nc21)C(O)c1ccccc1CC3 (stereo not given)
124 to 125 °C	CCCCCCS(=O)(=O)c1nn2c(=O)c(C(C)=O)cnc2s1
210 to 212 °C	CCCNC(=O)N(C)Cc1cccc2c1C(=O)N(C1CCC(=O)NC1=O)C2=O (stereo not given)
95 to 105 °C	CCC(C)(C)OC(=O)NC(C)(Cc1c[nH]c2ccccc12)C(=O)NCCc1cccnc1 (stereo not given)
151 to 153 °C	CCOC(=O)c1cn(C(C)CCl)c2cc(Cl)c(F)cc2c1=O (stereo not given)
205 °C	O=C(O)Cc1cc(C(=O)c2ccccc2)ccc1O
107 to 109 °C	Nc1ncnc2c1c(-c1ccc(Oc3ccccc3O)cc1)cn2C1CCCC1
> 300 °C	NC(=O)Cc1c(Cl)cnc2c(NC(=O)c3c(Cl)cccc3Cl)cccc12
156 to 157 °C	O=C1c2ccccc2C(Cc2ccnc(F)c2)(Cc2ccnc(F)c2)c2ccccc21
212 to 215 °C	CSc1ccc(-n2c(-c3cccnc3)nc(SC)c(C#N)c2=O)cc1
114 °C	O=[N+]([O-])c1cc(C(F)(F)F)ccc1NCCCN1CCN(C(c2ccccc2)c2ccccc2)CC1
149 to 151 °C	O=C(O)c1cccc(COc2cccc(OCc3ccc4ccccc4n3)c2)c1
226 °C	O=C(O)c1cccn2cc(-c3ccccc3)nc12
195 to 196 °C	Nn1cc(I)c(=O)[nH]c1=O
200 to 202 °C	Cc1ccc2c(c1)c1c(n2C(=O)c2ccccc2)CCC(C(=O)O)C1 (stereo not given)

SMILES	melting point
O=C1NCN(c2ccc(F)cc2)C12CCN(CCCn1c(=O)[nH]c3ccccc31)CC2	215 °C
CC(CCCc1ccc(F)cc1)c1cc(O)c2c3c(c(=O)oc2c1)CCC3 (stereo not given)	133 to 135 °C
C(#Cc1cnc2ccccc2c1)CCN1CC=C(c2ccccc2)CC1	94.3 to 95.8 °C
CC(C)(C)NC1CCCCC1O (stereo not given)	42 to 44 °C
CN(C(=O)CBr)c1ccc(Cl)cc1C(=O)c1ccccc1Cl	86 °C
